Consider 22 compounds from patent US7157487B2, “Vla-4 inhibitors” (Daiichi Pharmaceutical Co., Ltd., priority 2000, dated 2007).

Series [1] has as its target T1, integrins haα4 and β1 (VLA-4) expressed on CHO cells (Homo sapiens, UniProt P05556+P13612).
T1 construct: expressed in transfected cells; host or cells: CHO cells
The series is described as follows: In vitro Evaluation Test (1): binding of Eu3+-hVCAM-1 D1D7-IgG to CHO cells expressing integrins α4 and β1. The conditions noted are these: inhibition of Eu3+-hVCAM-1 D1D7-IgG binding to CHO cells expressing α4β1; Ki calculated from IC50. The method in brief: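 CHO cells transduced with human α4 and β1 were grown for 2 days. They were incubated 1 h at room temperature with Eu3+-hVCAM-1 D1D7-IgG (diluted to 2 nM before addition) and compound, with or without 6% HSA, in HEPES pH 7.5 containing Ca2+, Mg2+ and 4 mM Mn2+. Time-resolved fluorescence gave IC50; Ki used a Scatchard-derived Kd (0.06–20 nM).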

Series [2] is described as follows: Evaluation of oral bioavailability by mouse bioassay. It counts as in vivo. The conditions noted are these: 10 mg/kg oral, female Balb/C mice, serum 15 minutes after administration, read-out: Blood level. How it is done: A test compound was suspended or dissolved in a proper administration medium to give a concentration of 1 mg/ml. To 7 to 9 week old female Balb/C mice, 10 mg/kg of the resulting suspension or solution was orally administered. Fifteen minutes after the administration, blood was collected from the postcava under anesthesia with ether and the serum was separated from it. The concentration of each test compound was determined by estimating the serum level from a calibration curve obtained with VCAM-1/VLA-4 inhibitory activity as an index or measuring the concentration by using LC/MS/MS.

T1 sequence (P13612 34-1032): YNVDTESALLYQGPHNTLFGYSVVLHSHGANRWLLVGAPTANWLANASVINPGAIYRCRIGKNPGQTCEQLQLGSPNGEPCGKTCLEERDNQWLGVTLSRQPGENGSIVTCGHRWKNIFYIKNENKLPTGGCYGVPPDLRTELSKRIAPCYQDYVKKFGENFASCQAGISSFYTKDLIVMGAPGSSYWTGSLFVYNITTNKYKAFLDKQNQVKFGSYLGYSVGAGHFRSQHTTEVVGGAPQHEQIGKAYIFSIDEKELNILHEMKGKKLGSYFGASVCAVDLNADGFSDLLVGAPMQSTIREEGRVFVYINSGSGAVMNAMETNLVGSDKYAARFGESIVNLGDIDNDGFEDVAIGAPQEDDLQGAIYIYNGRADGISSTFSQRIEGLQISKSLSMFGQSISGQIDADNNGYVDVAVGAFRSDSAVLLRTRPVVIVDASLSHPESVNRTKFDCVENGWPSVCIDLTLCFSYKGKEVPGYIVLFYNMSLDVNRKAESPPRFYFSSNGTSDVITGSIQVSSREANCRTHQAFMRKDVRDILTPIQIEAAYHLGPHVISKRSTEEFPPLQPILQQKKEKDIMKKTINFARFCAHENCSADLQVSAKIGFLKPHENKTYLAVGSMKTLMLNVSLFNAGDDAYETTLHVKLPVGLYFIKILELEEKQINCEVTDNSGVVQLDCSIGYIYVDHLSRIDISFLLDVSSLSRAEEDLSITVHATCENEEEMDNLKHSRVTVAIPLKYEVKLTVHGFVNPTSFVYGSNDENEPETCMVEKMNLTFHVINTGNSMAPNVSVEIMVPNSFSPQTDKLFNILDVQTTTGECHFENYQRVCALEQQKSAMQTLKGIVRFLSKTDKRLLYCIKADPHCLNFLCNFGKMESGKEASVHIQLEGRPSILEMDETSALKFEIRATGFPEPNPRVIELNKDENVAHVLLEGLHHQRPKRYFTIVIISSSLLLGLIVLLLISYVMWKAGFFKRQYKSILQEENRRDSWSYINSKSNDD
T1 sequence (P05556 21-798): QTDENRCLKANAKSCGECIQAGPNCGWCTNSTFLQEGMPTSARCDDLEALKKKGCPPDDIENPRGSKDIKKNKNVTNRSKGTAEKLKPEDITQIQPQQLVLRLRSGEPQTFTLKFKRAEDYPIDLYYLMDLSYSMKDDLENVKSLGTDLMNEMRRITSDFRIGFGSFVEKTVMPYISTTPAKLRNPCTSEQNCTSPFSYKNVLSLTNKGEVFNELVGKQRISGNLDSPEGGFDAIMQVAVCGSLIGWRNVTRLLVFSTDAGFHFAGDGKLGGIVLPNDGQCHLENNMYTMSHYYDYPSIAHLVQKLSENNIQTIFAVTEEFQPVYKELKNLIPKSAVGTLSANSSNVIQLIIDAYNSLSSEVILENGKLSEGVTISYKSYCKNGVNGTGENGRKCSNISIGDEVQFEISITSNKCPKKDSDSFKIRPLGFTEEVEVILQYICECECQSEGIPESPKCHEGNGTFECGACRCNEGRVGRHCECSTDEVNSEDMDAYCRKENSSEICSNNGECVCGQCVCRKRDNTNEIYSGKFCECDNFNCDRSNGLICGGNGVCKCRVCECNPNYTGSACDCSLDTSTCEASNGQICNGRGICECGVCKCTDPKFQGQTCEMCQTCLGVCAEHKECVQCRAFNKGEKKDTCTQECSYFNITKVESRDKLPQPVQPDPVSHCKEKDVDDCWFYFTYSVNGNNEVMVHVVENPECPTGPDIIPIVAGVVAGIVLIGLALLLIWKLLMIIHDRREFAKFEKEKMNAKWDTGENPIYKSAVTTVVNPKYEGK

The Ki is a measure of affinity in units of concentration, obtained from inhibition or displacement. Consider `O=C(Cc1cc(Cl)c(Nc2nc3ccccc3s2)cc1F)N1C[C@@H](F)C[C@H]1CO[C@H]1CC[C@H](C(=O)O)CC1` [Example 61, trans-4-(1-(4-(2-Benzothiazolyl)amino-5-chloro-2-fluorophenylacetyl)-(4S)-fluoro-(2S)-pyrrolidinylmethoxy)cyclohexanecarboxylic acid], for which the Ki in series [1] was 2.3 nM. In addition, in series [2], the concentration at 15 min worked out at 3320 ng/mL.
The like results for `O=C(Cc1ccc(Nc2nc3cc(F)ccc3s2)c(Cl)c1)N1C[C@@H](F)C[C@H]1CO[C@H]1CC[C@H](C(=O)O)CC1` [Example 62, trans-4-(1-(3-Chloro-4-(5-fluoro-2-benzothiazolyl)aminophenylacetyl)-(4S)-fluoro-(2)-pyrrolidinylmethoxy)cyclohexanecarboxylic acid] were, in that order, 3.4 nM and 3200 ng/mL.
For the compound `O=C(Cc1cc(Cl)c(Nc2nc3cc(F)ccc3s2)cc1F)N1C[C@@H](F)C[C@H]1CO[C@H]1CC[C@H](C(=O)O)CC1` [Example 63, trans-4-(1-(5-Chloro-4-(5-fluoro-2-benzothiazolyl)amino-2-fluorophenylacetyl)-(4S)-fluoro-(2S)-pyrrolidinylmethoxy)cyclohexanecarboxylic acid], the Ki in series [1] is 3.1 nM. Further, in series [2], the concentration at 15 min was 8550 ng/mL.
The like results for `Cn1cc(C(=O)Nc2cc(F)c(CC(=O)N3C[C@@H](F)C[C@H]3CO[C@H]3CC[C@H](C(=O)O)CC3)cc2Cl)c2ccccc21` [Example 65, trans-4-(1-((5-Chloro-2-fluoro-4-((1-methyl-3-indolylcarbonyl)amino)phenyl)acetyl)-(4S)-fluoro-(2S)-pyrrolidinylmethoxy)cyclohexanecarboxylic acid] were, in that order, 4 nM and 11500 ng/mL.
Consider `Cn1cc(C(=O)Nc2ccc(CC(=O)N3C[C@@H](F)C[C@H]3CO[C@H]3CC[C@H](C(=O)O)CC3)cc2F)c2ccccc21` [Example 70, trans-4-(1-(3-Fluoro-4-(1-methyl-3-indolyl)carbonylaminophenylacetyl)-(4S)-fluoro-(2S)-pyrrolidinylmethoxy)cyclohexanecarboxylic acid], for which the Ki in series [1] was 7.2 nM. Further, the concentration at 15 min in series [2] came to 2800 ng/mL.
As for `Cn1cc(C(=O)Nc2cc(F)c(CC(=O)N3C[C@@H](F)C[C@H]3CO[C@H]3CC[C@H](C(=O)O)CC3)cc2F)c2ccccc21` [Example 71, trans-4-(1-(2,5-Difluoro-4-((1-methyl-1H-3-indolylcarbonyl)amino)phenylacetyl)-(4S)-fluoro-(2S)-pyrrolidinylmethoxy)cyclohexanecarboxylic acid], in series [1], the inhibition constant Ki is 18 nM. For the same compound, the concentration at 15 min in series [2] was 7340 ng/mL.
Turning to `Cn1cc(C(=O)Nc2cc(Cl)c(CC(=O)N3C[C@@H](F)C[C@H]3CO[C@H]3CC[C@H](C(=O)O)CC3)cc2Cl)c2ccccc21` [Example 72, trans-4-(1-(2,5-Dichloro-4-((1-methyl-1H-3-indolylcarbonyl)amino)phenylacetyl)-(4S)-fluoro-(2S)-pyrrolidinylmethoxy)cyclohexanecarboxylic acid], the Ki in series [1] is 4.4 nM. For the same compound, the concentration at 15 min in series [2] turned out to be 1880 ng/mL.
For `Cn1cc(C(=O)Nc2cc(F)c(CC(=O)N3C[C@@H](F)C[C@H]3CO[C@H]3CC[C@H](C(=O)O)CC3)cc2Cl)c2cc(F)ccc21` [Example 74, trans-4-(1-((5-Chloro-2-fluoro-4-(((5-fluoro-1-methyl-3-indolyl)carbonyl)amino)phenyl)acetyl)-(4S)-fluoro-(2S)-pyrrolidinylmethoxy)cyclohexanecarboxylic acid], the Ki in series [1] was 7.7 nM. In series [2], the concentration at 15 min was 14100 ng/mL.
Regarding `O=C(Nc1ccc(CC(=O)N2C[C@@H](F)C[C@H]2CO[C@H]2CC[C@H](C(=O)O)CC2)cc1Br)c1nccc2ccccc12` [Example 79, trans-4-(1-((3-Bromo-4-((1-isoquinolinylcarbonyl)amino)phenyl)acetyl)-(4S)-fluoro-(2S)-pyrrolidinylmethoxy)cyclohexanecarboxylic acid], the Ki in series [1] is 4.5 nM. The concentration at 15 min in series [2] was determined as 9370 ng/mL.
Consider `O=C(Nc1ccc(CC(=O)N2C[C@@H](F)C[C@H]2CO[C@H]2CC[C@H](C(=O)O)CC2)cc1Cl)c1nsc2ccccc12` [Example 83, trans-4-(1-(3-Chloro-4-((3-benzo(d)isothiazolylcarbonyl)amino)phenylacetyl)-(4S)-fluoro-(2S)-pyrrolidinylmethoxy)cyclohexanecarboxylic acid], for which the Ki in series [1] is 1.9 nM. Also, the concentration at 15 min in series [2] was found to be 1540 ng/mL.
As for `Cn1nc(C(=O)Nc2cc(F)c(CC(=O)N3C[C@@H](F)C[C@H]3CO[C@H]3CC[C@H](C(=O)O)CC3)cc2Cl)c2ccccc21` [Example 87, trans-4-(1-((5-Chloro-2-fluoro-4-((1-methyl-3-indazolylcarbonyl)amino)phenyl)acetyl)-(4S)-fluoro-(2S)-pyrrolidinylmethoxy)cyclohexanecarboxylic acid], the inhibition constant (Ki) in series [1] is 9.1 nM. In addition, the concentration at 15 min in series [2] worked out at 15100 ng/mL.
The like results for `Cn1nc(C(=O)Nc2ccc(CC(=O)N3C[C@@H](F)C[C@H]3CO[C@H]3CC[C@H](C(=O)O)CC3)cc2Cl)c2ccccc21` [Example 89, trans-4-(1-((3-Chloro-4-((1-methyl-3-indazolylcarbonyl)amino)phenyl)acetyl)-(4S)-fluoro-(2S)-pyrrolidinylmethoxy)cyclohexanecarboxylic acid] were, in that order, 3.6 nM and 10900 ng/mL.
As for `O=C(Nc1cc(F)c(CC(=O)N2C[C@@H](F)C[C@H]2CO[C@H]2CC[C@H](C(=O)O)CC2)cc1Cl)N1CCc2ccccc21` [Example 91, trans-4-(1-(5-Chloro-2-fluoro-4-(1-(indolinyl)carbonylamino)phenylacetyl)-(4S)-fluoro-(2S)-pyrrolidinylmethoxy)cyclohexanecarboxylic acid], in series [1], the Ki was 2 nM. Moreover, the concentration at 15 min in series [2] is 2960 ng/mL.
Consider `O=C(Nc1ccc(CC(=O)N2C[C@@H](F)C[C@H]2CO[C@H]2CC[C@H](C(=O)O)CC2)cc1Cl)N1CCc2ccc(F)cc21` [Example 92], for which, in series [1], the inhibition constant Ki was 2.7 nM. The concentration at 15 min in series [2] was 1990 ng/mL.
For the compound `Cn1cc(-c2nc3ccc(CC(=O)N4C[C@@H](F)C[C@H]4CO[C@H]4CC[C@H](C(=O)O)CC4)c(F)c3o2)c2ccccc21` [Example 98, trans-4-(1-((7-Fluoro-2-(1-methyl-3-indolyl)-6-benzoxazolyl)acetyl)-(4S)-fluoro-(2S)-pyrrolidinylmethoxy)cyclohexanecarboxylic acid], in series [1], the inhibitory constant (Ki) was 3.6 nM. Besides, the concentration at 15 min in series [2] came out at 2210 ng/mL.
For the compound `Cn1cc(-c2nc3ccc(CC(=O)N4C[C@@H](F)C[C@H]4CO[C@H]4CC[C@H](C(=O)O)CC4)cc3o2)c2cc(F)ccc21` [Example 100, trans-4-(1-((2-(5-Fluoro-1-methyl-3-indolyl)-6-benzoxazolyl)acetyl)-(4S)-fluoro-(2S)-pyrrolidinylmethoxy)cyclohexanecarboxylic acid], the inhibitory constant (Ki) in series [1] was 5.5 nM. Besides, the concentration at 15 min in series [2] came to 533 ng/mL.
For `CO[C@@H]1C[C@@H](CO[C@H]2CC[C@H](C(=O)O)CC2)N(C(=O)Cc2cc(Cl)c(NC(=O)c3cn(C)c4ccccc34)cc2F)C1` [Example 115, trans4-(1-((5-chloro-2-fluoro-4-(1-methyl-3-indolylcarbonylamino)phenyl)acetyl)-(4R)-methoxy-(2S)-pyrrolidinylmethoxy)cyclohexanecarboxylic acid], the Ki in series [1] is 30 nM. Besides, the concentration at 15 min in series [2] came to 888 ng/mL.
`CO[C@H]1C[C@@H](CO[C@H]2CC[C@H](C(=O)O)CC2)N(C(=O)Cc2cc(Cl)c(NC(=O)c3cn(C)c4ccccc34)cc2F)C1` [Example 116, trans-4-(1-((5-Chloro-2-fluoro-4-(1-methyl-3-indolylcarbonylamino)phenyl)acetyl)-(4S)-methoxy-(2S)-pyrrolidinylmethoxy)cyclohexanecarboxylic acid]: the Ki in series [1] was 2.5 nM. The concentration at 15 min in series [2] was 9400 ng/mL.
The like results for `C=CCO[C@H]1C[C@@H](CO[C@H]2CC[C@H](C(=O)O)CC2)N(C(=O)Cc2cc(Cl)c(NC(=O)c3cn(C)c4ccccc34)cc2F)C1` [Example 117, trans-4-((4S)-Allyloxy-1-((5-chloro-2-fluoro-4-(1-methyl-3-indolylcarbonylamino)phenyl)acetyl)-(2S)-pyrrolidinylmethoxy)cyclohexanecarboxylic acid] were, in that order, 5.1 nM and 2930 ng/mL.
For the compound `CCCO[C@H]1C[C@@H](CO[C@H]2CC[C@H](C(=O)O)CC2)N(C(=O)Cc2cc(Cl)c(NC(=O)c3cn(C)c4ccccc34)cc2F)C1` [Example 118, trans-4-(1-((5-Chloro-2-fluoro-4-(1-methyl-3-indolylcarbonylamino)phenyl)acetyl)-(4S)-propoxy-(2S)-pyrrolidinylmethoxy)cyclohexanecarboxylic acid], in series [1], the inhibition constant Ki is 6.9 nM. Moreover, the concentration at 15 min in series [2] came to 5730 ng/mL.
As to `CO[C@H]1C[C@@H](CO[C@H]2CC[C@H](C(=O)O)CC2)N(C(=O)Cc2cc(Cl)c(NC(=O)c3nn(C)c4ccccc34)cc2F)C1` [Example 121, trans-4-(1-((5-Chloro-2-fluoro-4-(1-methyl-3-indazolylcarbonylamino)phenyl)acetyl)-(4S)-methoxy-(2S)-pyrrolidinylmethoxy)cyclohexanecarboxylic acid], the inhibition constant (Ki) in series [1] was 3.9 nM. In addition, the concentration at 15 min in series [2] amounted to 4410 ng/mL.
For `Cc1ccccc1Nc1nc2ccc(CC(=O)N3C[C@@H](Sc4ccccc4)C[C@H]3CO[C@H]3CC[C@H](C(=O)O)CC3)cc2o1` [Example 123] the same measures were 5.8 nM and 705 ng/mL.
